In patent US20220000840A1, “PHARMACEUTICAL COMPOSITION AND PREPARATION METHOD THEREFOR” (priority 2015, published 2022):

Columns and labels:
[1] = intravenous injection of prior-art injection (NL-101 dissolved with acetic acid, diluted with water for injection), animal; cited from earlier work
[2] = Stability of NL-101 reconstituted solution (5 mg/mL) at room temperature (25±2°C); type: physicochemical; conditions: CN103826630A Example 2 lyophilized preparation
From the text: In the process of investigating the NL-101 lyophilized preparation, the inventors unexpectedly discovered that reconstitution of the NL-101 lyophilized preparation with different solvents has a great influence on the stability of NL-101. For example, the lyophilized preparation prepared in Example 2 of CN103826630A was reconstituted with water for injection and physiological saline, respectively, and the purity of NL-101 in the reconstituted solution was examined at different time points.
Since the NL-101 lyophilized powder for injection prepared in Example 2 of CN103826630A contains sodium ions, it is speculated that the stability of NL-101 is increased by chlorine ions in sodium chloride. In order to confirm this, we conducted a stability investigation by reconstituting the lyophilized preparation prepared in Example 2 of CN103826630A in a potassium chloride solution having the same molar concentration as physiological saline.

[3] = Accelerated test of NL-101 lyophilized preparation at 40°C, HPLC / HPLC-MS; type: physicochemical; conditions: for Purity: lyophilized preparation per Example 2 of CN103826630A, accelerated test at 40° C.
Procedure: (§1) Northlake Biosciences LLC submitted an application WO2013010286A2 on Sep. 14, 2012, and its Chinese family patent is CN103826630A. Chinese family patent application CN103826630A uses acetic acid to dissolve NL-101 and use cyclodextrin inclusion technology to prepare lyophilized powder for injection to improve the safety of NL-101. However, the prepared NL-101 lyophilized powder for injection, such as Example 2, although claimed to be chemically stable at −20° C., 4° C. and room temperature for at least 2 weeks, in fact, the inventors of the present application have verified that the results are still far from satisfying the clinical application requirements of drugs. Although it can be stable for 2-3 weeks at −20° C. and 4° C., it is only stable for several days at room temperature. […] Especially when placed only 5 days in the condition of high temperature accelerated test at 40° C., more than 15% of NL-101 was degraded. The specific stability test results are shown in Table 1, Table 2, and Table 3 below.
The NL-101 lyophilized preparation for injection prepared according to the formulation 4 was taken and subjected to an accelerated test at 40° C., and the stability was tested by high performance liquid chromatography.
The NL-101 lyophilized preparation for injection prepared according to the formulations 16 and 22 were taken and subjected to an accelerated test at 40° C., and the accelerated test samples were test by high performance liquid chromatography in connection with mass spectrometry.
The above three batches of lyophilized powder for injection were taken and subjected to accelerated experiments at 40° C. The contents and total impurities were measured at 0, 1, 3, and 6 months, respectively.

[4] = Solubility and chemical stability of NL-101 drug substance; type: physicochemical
[5] = Storage stability of NL-101 lyophilized preparation (room temperature, 4°C, -20°C); type: physicochemical; conditions: for time stable: verified by the inventors; for Purity: lyophilized preparation per Example 2 of CN103826630A, room temperature (25 ± 2° C.)
Procedure: as §1
According to the accelerated test results at 40° C., it is presumed that under the condition of storage, transportation and sales at room temperature (25±2° C.), it can remain stable for at least 2 years and fully meet the needs of clinical use.

[6] = lyophilized powder for injection of CN103826630A Example 2, at −20° C., 4° C. and room temperature, as claimed in CN103826630A; cited from earlier work
[7] = Stability of NL-101 intermediate/diluted solution (before lyophilization) at room temperature (25±2°C), HPLC; type: physicochemical; conditions: for Purity: intermediate solution per Example 2 of CN103826630A, room temperature (25 ± 2° C.)
Procedure: as §1
The diluted solutions prepared according to the formulations 1-15, 1-1, 2-1, 3-1 and according to Example 2 of CN103826630A were left to stand for 2 hours at room temperature (25±2° C.) and the stability of each diluted solution was tested by high performance liquid chromatography.
The diluted solutions prepared according to the formulations 16-29 and according to Example 2 of CN103826630A were left to stand for 2 hours at room temperature (25±2° C.) and the stability of each diluted solution was tested by high performance liquid chromatography.
Three batches of diluted solutions were taken and placed at room temperature (25±2° C.) for different periods of time. The stability of each diluted solution was tested by high performance liquid chromatography.

## Cn1c(CCCCCCC(=O)NO)nc2cc(N(CCCl)CCCl)ccc21 [NL-101, 7-[5-[bis(chloroethyl)-amino]-1-methylbenzimidazol-2-yl]-N-hydroxyl-heptamide]
[1]
  mortality rate: high
  toxicity: highly toxic
  vascular irritation: large
[2]; 0 h
  purity of NL-101 reconstituted with potassium chloride injection: 91.28%
  purity of NL-101 reconstituted with sodium chloride injection: 91.88%
  purity of NL-101 reconstituted with water for injection: 90.23%
[2]; 2 h
  purity of NL-101 reconstituted with potassium chloride injection: 86.25%
  purity of NL-101 reconstituted with sodium chloride injection: 87.05%
  purity of NL-101 reconstituted with water for injection: 80.06%
[2]; 4 h
  purity of NL-101 reconstituted with potassium chloride injection: 81.93%
  purity of NL-101 reconstituted with sodium chloride injection: 80.23%
  purity of NL-101 reconstituted with water for injection: 71.08%
[2]; 6 h
  purity of NL-101 reconstituted with potassium chloride injection: 83.56%
  purity of NL-101 reconstituted with sodium chloride injection: 78.33%
  purity of NL-101 reconstituted with water for injection: 59.36%
[3]; lyophilized powder for injection of CN103826630A Example 2, 5 days in accelerated test at 40° C.
  NL-101 degraded: more than 15%
[3]; day 0
  Purity: 90.23%
[3]; day 5
  Purity: 72.31%
[4]; in acetic acid
  solubility: easily soluble
[4]; in aqueous solution
  stability: unstable
[4]; in case of strong acid, strong alkali, strong oxidant and light
  stability: easily degraded
[4]; in ethanol
  solubility: very slightly soluble
[4]; in methanol
  solubility: slightly soluble
[4]; in methanol and acetic acid solution
  stability: relatively stable
[4]; in water
  solubility: insoluble
[5]; lyophilized powder for injection of CN103826630A Example 2, at room temperature
  time stable: several days
[5]; lyophilized powder for injection of CN103826630A Example 2, at −20° C. and 4° C.
  time stable: 2-3 weeks
[5]; lyophilized powder for injection of CN103826630A Example 2, room temperature for 1 month
  degradation of NL-101: degraded severely
[5]; day 0
  Purity: 90.23%
[5]; day 5
  Purity: 85.16%
[5]; day 15
  Purity: 77.31%
[5]; day 30
  Purity: 70.55%
[6]
  time claimed to be chemically stable: at least 2 weeks
[7]; intermediate solution before lyophilization per Example 2 of CN103826630A, in the dark at room temperature for 4 hours
  NL-101 degraded: more than 15%
[7]; 0 h
  Purity: 94.05%
[7]; 2 h
  Purity: 88.06%
[7]; 4 h
  Purity: 78.22%
